In patent US11530244B2, “Cyclic polypeptides for PCSK9 inhibition” (priority 2018, dated 2022):
Where two headings read alike, the source gives them in different places. Starred links: 1 amine or outer side, 2 acyl side, 3 side chain; linkers in the order of their positions; H or OH if unused. Positions of bridges follow the written chain, without caps; N, C: chain ends. Non-standard residues stand in square brackets, D forms with d. Residues, ends and D or L forms follow the SMILES beside them. X24 = O=C(CCCCSc1c(F)c(F)c(SCCN[*:1])c(F)c1F)[*:2]; Trp(5-F) = N[C@@H](Cc1c[nH]c2ccc(F)cc12)C(=O)O; NMeW = CN[C@@H](Cc1c[nH]c2ccccc12)C(=O)O; X17 = O=C(CCSCc1ccc(CSCCN[*:1])cc1)[*:2]; Pro(4S-NH2) = N[C@@H]1CN[C@H](C(=O)O)C1; X4 = O=C(CCSCc1cccc(CSCCN[*:1])c1)[*:2]; dGly(cPent) = N[C@@H](C(=O)O)C1CCCC1; mXylylene = c1cc(C[*:1])cc(C[*:2])c1; NMeY = CN[C@@H](Cc1ccc(O)cc1)C(=O)O; X8 = Clc1cc(C[*:1])cc(C[*:2])c1; Aad = N[C@@H](CCCC(=O)O)C(=O)O; αMeP = C[C@@]1(C(=O)O)CCCN1; Mpa = O=C(O)CCS

Columns and labels:
[1] = biological target: PCSK9 (Homo sapiens (Human), UniProt Q8NBP7); experiment: PCSK9 Alexa FRET Standard assay (displacement of AlexaFluor647 tagged cyclic peptide Reagent A); assay type: binding
Chain of PCSK9 (Q8NBP7 153-692): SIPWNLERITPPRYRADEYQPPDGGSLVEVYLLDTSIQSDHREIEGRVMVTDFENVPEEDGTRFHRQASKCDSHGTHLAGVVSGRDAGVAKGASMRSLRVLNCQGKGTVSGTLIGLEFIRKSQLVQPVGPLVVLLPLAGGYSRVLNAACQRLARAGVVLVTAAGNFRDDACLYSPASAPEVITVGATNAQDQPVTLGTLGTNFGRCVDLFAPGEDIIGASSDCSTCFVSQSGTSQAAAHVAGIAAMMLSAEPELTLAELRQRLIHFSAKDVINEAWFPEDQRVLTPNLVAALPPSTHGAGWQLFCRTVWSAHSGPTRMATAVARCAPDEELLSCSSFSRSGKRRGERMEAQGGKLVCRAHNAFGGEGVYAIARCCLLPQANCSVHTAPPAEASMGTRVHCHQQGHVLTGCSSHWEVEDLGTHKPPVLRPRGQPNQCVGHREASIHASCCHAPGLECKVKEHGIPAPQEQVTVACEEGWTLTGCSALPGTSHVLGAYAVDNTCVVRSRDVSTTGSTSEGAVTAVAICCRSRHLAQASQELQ
Summary of the method: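 TR-FRET displacement: 0.5 nM biotinylated PCSK9 with 1.25 nM Strep-Eu and 20 nM AlexaFluor-tagged cyclic peptide (final) in 50 mM HEPES pH 7.4, 0.15 M NaCl, 5 mM CaCl2, 0.01% BSA, 0.01% P20, ≥2 h at room temperature. IC50 from sigmoidal fit, converted to Ki via peptide KD; falling Eu counts flagged false positives.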

[2] = biological target: human PCSK9 / human LDLR EGFa domain interaction (Homo sapiens (Human), UniProt Q8NBP7); experiment: TR-FRET assay of inhibition of the PCSK9-LDLR protein-protein interaction; assay type: binding
Chain of human PCSK9 / human LDLR EGFa domain interaction (Q8NBP7 153-692): as above
Chain of human PCSK9 / human LDLR EGFa domain interaction (Q8NBP7 31-152 partner): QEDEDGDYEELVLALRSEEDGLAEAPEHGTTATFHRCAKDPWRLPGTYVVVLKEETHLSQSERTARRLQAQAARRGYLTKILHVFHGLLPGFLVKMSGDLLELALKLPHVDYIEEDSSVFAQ
Summary of the method: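 Compounds in dose-response are mixed with 20 nM human PCSK9 (avitag-biotinylated) and 20 nM his-tagged LDLR EGFa domain, plus 5 nM each streptavidin-Ulight and Eu-anti-6×His. After 2 h at room temperature in HEPES/NaCl/CaCl2 buffer with BSA and P20, TR-FRET is read and IC50 fitted (4-parameter).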

[3] = PCSK9 Alexa FRET Standard assay, 0.5 nM PCSK9, 20 nM AF cyclic peptide Reagent A, read-out: IC50
[4] = TR-FRET, 20 nM human PCSK9, 20 nM human LDLR EGFa domain, 2 hours room temperature, read-out: IC50

| Structure (SMILES) | IC50 [1, 3] [µM] | IC50 [2, 4] [µM] | IC50 ([1]; IC50) [µM] | IC50 [2] [µM] |
| --- | --- | --- | --- | --- |
| COc1ccc(C[C@@H]2NC(=O)[C@H]([C@@H](C)O)NC(=O)[C@@H]3CCCN3C(=O)[C@H](Cc3c[nH]c4ccc(F)cc34)NC(=O)[C@H](Cc3c[nH]c4ccc(F)cc34)NC(=O)[C@@H](C)NC(=O)[C@H](CCCCN)NC(=O)CCSCc3cc(Cl)cc(c3)CSC[C@@H](C(N)=O)NC(=O)[C@]3(C)CCCN3C2=O)cc1 [Compound 064] ([Mpa]K[dA][Trp(5-F)][Trp(5-F)]PTY(Me)[αMeP]C-NH2; linker 1-10 via X8) | 1 to 12.1 | 1 to 12.1 |  |  |
| COc1ccc(C[C@@H]2NC(=O)[C@H](Cc3cnc[nH]3)NC(=O)[C@H](CC(=O)O)NC(=O)[C@H](Cc3c[nH]c4ccc(F)cc34)NC(=O)[C@H](Cc3c[nH]c4ccc(F)cc34)NC(=O)[C@@H](C)NC(=O)CCCCSc3c(F)c(F)c(c(F)c3F)SCCNC(=O)[C@]3(C)CCCN3C2=O)cc1 [Compound 483] (cyclo(DHY(Me)[αMeP][X24][dA][Trp(5-F)][Trp(5-F)])) | 0.00011 to 0.1 | 0.0001 to 0.1 |  |  |
| C[C@H]1NC(=O)[C@H](CCCCN)NC(=O)CCSCc2cccc(c2)CSCCNC(=O)[C@]2(C)CCCN2C(=O)[C@H](Cc2ccc(O)cc2)N(C)C(=O)[C@H](Cc2c[nH]cn2)NC(=O)[C@H](CC(=O)O)NC(=O)[C@H](Cc2c[nH]c3ccc(F)cc23)NC(=O)[C@H](Cc2c[nH]c3ccccc23)N(C)C1=O [Compound 276] (cyclo(DH[NMeY][αMeP][X4]K[dA][NMeW][Trp(5-F)])) |  |  | 0.1 to 1 | 0.0001 to 0.1 |
| C[C@H]1NC(=O)[C@H](Cc2cnc[nH]2)NC(=O)[C@H](CC(=O)O)NC(=O)[C@H](Cc2c[nH]c3ccc(F)cc23)NC(=O)[C@H](Cc2c[nH]c3ccc(F)cc23)NC(=O)CNC(=O)[C@H](CCCCN)NC(=O)CCSCc2cccc(c2)CSC[C@@H](C(N)=O)NC(=O)[C@]2(C)CCCN2C1=O [Compound 319] ([Mpa]KG[Trp(5-F)][Trp(5-F)]DH[dA][αMeP]C-NH2; linker 1-10 via mXylylene) | 1 to 12.1 | 0.1 to 1 |  |  |
| COc1ccc(C[C@@H]2NC(=O)[C@H](CCCC(=O)O)NC(=O)[C@@H]3C[C@H](N)CN3C(=O)[C@H](Cc3c[nH]c4ccc(F)cc34)NC(=O)[C@H](Cc3c[nH]c4ccc(F)cc34)NC(=O)[C@@H](C)NC(=O)[C@H](C)NC(=O)CCSCc3ccc(cc3)CSCCNC(=O)[C@]3(C)CCCN3C2=O)cc1 [Compound 345] (cyclo(A[dA][Trp(5-F)][Trp(5-F)][Pro(4S-NH2)][Aad]Y(Me)[αMeP][X17])) | 21 to 50 | 21 to 50 |  |  |
| COc1ccc(C[C@@H]2NC(=O)[C@H](Cc3c[nH]cn3)NC(=O)[C@H](CC(=O)O)NC(=O)[C@H](Cc3c[nH]c4ccc(F)cc34)NC(=O)[C@H](Cc3c[nH]c4ccc(F)cc34)NC(=O)[C@@H](C3CCCC3)NC(=O)[C@H](CCCCN)NC(=O)CCSCc3cccc(c3)CSCCNC(=O)[C@]3(C)CCCN3C2=O)cc1 [Compound 344] (cyclo(DHY(Me)[αMeP][X4]K[dGly(cPent)][Trp(5-F)][Trp(5-F)])) | 21 to 50 | 21 to 50 |  |  |
| CC(=O)N[C@H]1Cc2cn(nn2)-c2ccc(cc2)C[C@@H](C(N)=O)NC(=O)[C@]2(C)CCCN2C(=O)[C@H](Cc2ccc(O)cc2)NC(=O)[C@H](Cc2cnc[nH]2)NC(=O)[C@H](CC(=O)O)NC(=O)[C@H](Cc2c[nH]c3ccc(F)cc23)NC(=O)[C@H](Cc2c[nH]c3ccc(F)cc23)NC(=O)CNC(=O)[C@H](C)NC1=O [Compound 334] | 21 to 50 | 21 to 50 |  |  |
| COc1ccc(C[C@@H]2NC(=O)[C@@H]3CCCCC(=O)N[C@H]4C[C@@H](C(=O)N3)N(C4)C(=O)[C@H](Cc3c[nH]c4ccc(F)cc34)NC(=O)[C@H](Cc3c[nH]c4ccc(F)cc34)NC(=O)[C@@H](C)NC(=O)[C@H](CCCN)NC(=O)CCSCc3cccc(c3)CCSCNC(=O)[C@]3(C)CCCN3C2=O)cc1 [Compound 521] | 0.00011 to 0.1 | 0.0001 to 0.1 |  |  |
